How the values were obtained:
[1] = Cytotoxicity against human A-375 cells assessed as reduction in cell viability measured after 36 to 48 hrs by MTT assay; type: toxicity, cell-based
[2] = Cytotoxicity against human HDF cells assessed as reduction in cell viability incubated for 6 hrs followed by irradiation for 30 mins with light at wavelength of 643 nm and measured after 36 to 48 hrs by MTT assay; type: toxicity, cell-based
[3] = Phototoxicity against human MeWo cells assessed as reduction in cell viability incubated for 6 hrs followed by irradiation for 30 mins with light at wavelength of 643 nm and measured after 36 to 48 hrs by MTT assay; type: functional, cell-based; details: light or radiation study
[4] = Phototoxicity against human A-375 cells assessed as reduction in cell viability incubated for 6 hrs followed by irradiation for 30 mins with light at wavelength of 606 nm and measured after 36 to 48 hrs by MTT assay; type: functional, cell-based; details: A-375, light or radiation study
[5] = Phototoxicity against human A-375 cells assessed as reduction in cell viability incubated for 6 hrs followed by irradiation for 30 mins with light at wavelength of 643 nm and measured after 36 to 48 hrs by MTT assay; type: functional, cell-based; details: A-375, light or radiation study
[6] = Drug uptake in human HDF cells at 1 uM measured at 37 degC after 6 hrs by fluorescence based analysis; type: ADME, cell-based
[7] = Drug uptake in human HDF cells at 1 uM measured at 4 degC after 6 hrs by fluorescence based analysis; type: ADME, cell-based
[8] = Cytotoxicity against human MeWo cells assessed as reduction in cell viability measured after 36 to 48 hrs by MTT assay; type: toxicity, cell-based
[9] = Cytotoxicity against human HDF cells assessed as reduction in cell viability measured after 36 to 48 hrs by MTT assay; type: toxicity, cell-based
[10] = Cytotoxicity against human HDF cells assessed as reduction in cell viability incubated for 6 hrs followed by irradiation for 30 mins with light at wavelength of 606 nm and measured after 36 to 48 hrs by MTT assay; type: toxicity, cell-based
[11] = Drug uptake in human MeWo cells at 1 uM measured at 4 degC after 6 hrs by fluorescence based analysis; type: ADME, cell-based
[12] = Phototoxicity against human MeWo cells assessed as reduction in cell viability incubated for 6 hrs followed by irradiation for 30 mins with light at wavelength of 606 nm and measured after 36 to 48 hrs by MTT assay; type: functional, cell-based; details: light or radiation study
[13] = Drug uptake in human MeWo cells at 1 uM measured at 37 degC after 6 hrs by fluorescence based analysis; type: ADME, cell-based
[14] = Phototoxicity against human MeWo cells assessed as cell proliferation rate at 1 uM incubated for 6 hrs followed by irradiation for 30 mins with light at wavelength of 606 nm and measured after 36 to 48 hrs by MTT assay; type: functional; details: light or radiation study, time 2550-3270 min, read-out: Activity
[15] = Drug uptake in cytoplasmic organelles in human MeWo cells at 5 uM incubated for 6 hrs by DIOC6(3) dye based fluorescence microscopy; type: ADME, cell-based
[16] = Cytotoxicity against human HDF cells assessed as cell proliferation rate at 1 uM incubated for 6 hrs followed by irradiation for 30 mins with light at wavelength of 643 nm and measured after 36 to 48 hrs by MTT assay; type: toxicity, cell-based; details: time 2550-3270 min, read-out: Activity
[17] = Drug uptake in nucleus in human HDF cells at 5 uM incubated for 6 hrs by DIOC6(3) dye based fluorescence microscopy; type: ADME, cell-based
[18] = Phototoxicity against human MeWo cells assessed as cell proliferation rate at 1 uM incubated for 6 hrs followed by irradiation for 30 mins with light at wavelength of 643 nm and measured after 36 to 48 hrs by MTT assay; type: functional; details: light or radiation study, time 2550-3270 min, read-out: Activity
[19] = Phototoxicity against human A-375 cells assessed as reduction in cell proliferation at 1 uM incubated for 6 hrs followed by irradiation for 30 mins with light at wavelength of 606 nm and measured after 36 to 48 hrs by MTT assay; type: functional; details: A-375, light or radiation study, time 2550-3270 min
[20] = Cytotoxicity against human HDF cells assessed as reduction in cell proliferation at 1 uM incubated for 6 hrs followed by irradiation for 30 mins with light at wavelength of 606 nm and measured after 36 to 48 hrs by MTT assay; type: toxicity, cell-based; details: time 2550-3270 min
[21] = Drug uptake in nucleus in human MeWo cells at 5 uM incubated for 6 hrs by DIOC6(3) dye based fluorescence microscopy; type: ADME, cell-based
[22] = (§1) Selectivity index, ratio of IC50 for cytotoxicity against human HDF cells incubated for 6 hrs followed by irradiation for 30 mins with light at wavelength of 606 nm and measured after 36 to 48 hrs to IC50 for phototoxicity against human A-375 cells incubated for 6 hrs followed by irradiation for 30 mins with light at wavelength of 606 nm and measured after 36 to 48 hrs; type: toxicity, cell-based; details: HDF cells versus A-375 cells, read-out: Ratio IC50
[23] = Drug uptake in cytoplasmic organelles in human HDF cells at 5 uM incubated for 6 hrs by DIOC6(3) dye based fluorescence microscopy; type: ADME, cell-based
[24] = as §1, with “MeWo” for “A-375”; type: toxicity, cell-based; details: HDF cells versus MeWo cells, read-out: Ratio IC50
[25] = Cytotoxicity against human HDF cells assessed as cell proliferation rate at 1 uM incubated for 6 hrs followed by irradiation for 30 mins with light at wavelength of 606 nm and measured after 36 to 48 hrs by MTT assay; type: toxicity, cell-based; details: time 2550-3270 min, read-out: Activity
[26] = Phototoxicity against human MeWo cells assessed as reduction in cell proliferation at 1 uM incubated for 6 hrs followed by irradiation for 30 mins with light at wavelength of 606 nm and measured after 36 to 48 hrs by MTT assay; type: functional; details: light or radiation study, time 2550-3270 min
[27] = Cytotoxicity against human HDF cells assessed as reduction in cell proliferation at 1 uM incubated for 6 hrs followed by irradiation for 30 mins with light at wavelength of 643 nm and measured after 36 to 48 hrs by MTT assay; type: toxicity, cell-based; details: time 2550-3270 min
[28] = Phototoxicity against human A-375 cells assessed as reduction in cell proliferation at 1 uM incubated for 6 hrs followed by irradiation for 30 mins with light at wavelength of 643 nm and measured after 36 to 48 hrs by MTT assay; type: functional; details: A-375, light or radiation study, time 2550-3270 min
[29] = Phototoxicity against human MeWo cells assessed as reduction in cell proliferation at 1 uM incubated for 6 hrs followed by irradiation for 30 mins with light at wavelength of 643 nm and measured after 36 to 48 hrs by MTT assay; type: functional; details: light or radiation study, time 2550-3270 min
[30] = Phototoxicity against human A-375 cells assessed as cell proliferation rate at 1 uM incubated for 6 hrs followed by irradiation for 30 mins with light at wavelength of 643 nm and measured after 36 to 48 hrs by MTT assay; type: functional; details: A-375, light or radiation study, time 2550-3270 min, read-out: Activity
[31] = Phototoxicity against human A-375 cells assessed as cell proliferation rate at 1 uM incubated for 6 hrs followed by irradiation for 30 mins with light at wavelength of 606 nm and measured after 36 to 48 hrs by MTT assay; type: functional; details: A-375, light or radiation study, time 2550-3270 min, read-out: Activity
[32] = Drug uptake in human MeWo cells at 1 uM measured after 6 hrs by fluorescence based analysis; type: ADME, cell-based
[33] = Drug uptake in human A-375 cells at 1 uM measured after 6 hrs by fluorescence based analysis; type: ADME, cell-based; details: a-375, 6 h
[34] = Drug uptake in human HDF cells at 1 uM measured after 6 hrs by fluorescence based analysis; type: ADME, cell-based
[35] = Drug uptake in human HDF cells at 1 uM measured per 10^3 cells after 24 hrs by fluorescence based analysis; type: ADME, cell-based

Row | Compound | Drug uptake [6] | Drug uptake [7] | Drug uptake [11] | Drug uptake [13] | Drug uptake [15] | Drug uptake [17] | Drug uptake [21] | Drug uptake [23] | IC50 [1] | IC50 [2] | IC50 [3] | IC50 [4] | IC50 [5] | IC50 [8] | IC50 [9] | IC50 [10] | IC50 [12] | other results
1 | CCCCCCCC(=O)Nc1ccc(-c2c3nc(c(-c4ccc[n+](C)c4)c4ccc([nH]4)c(-c4ccc[n+](C)c4)c4nc(c(-c5ccc[n+](C)c5)c5ccc2[nH]5)C=C4)C=C3)cc1.[Cl-].[Cl-].[Cl-] | Active | Active | Active | Active |  |  |  |  | > 100 µM | 25.7 µM | 8.31 µM | 3.22 µM | 2.5 µM | > 100 µM | > 100 µM | 32 µM | 18.9 µM | 
2 | CCCCCCCCCCCC(=O)Nc1ccc(-c2c3nc(c(-c4ccc[n+](C)c4)c4ccc([nH]4)c(-c4ccc[n+](C)c4)c4nc(c(-c5ccc[n+](C)c5)c5ccc2[nH]5)C=C4)C=C3)cc1 |  |  |  |  |  |  |  |  | > 100 µM | 4.65 µM | 2.36 µM | 0.33 µM | 0.29 µM | > 100 µM | > 100 µM | 6.26 µM | 4.27 µM | inhibition at 1 µM [27]: < 20%; inhibition at 1 µM [28]: > 90%; inhibition at 1 µM [29]: 40%
3 | CCCCCCCCCCCCCCCCCC(=O)Nc1ccc(-c2c3nc(c(-c4ccc[n+](C)c4)c4ccc([nH]4)c(-c4ccc[n+](C)c4)c4nc(c(-c5ccc[n+](C)c5)c5ccc2[nH]5)C=C4)C=C3)cc1.[Cl-].[Cl-].[Cl-] | Active |  |  | Active | Active | Not_active | Not_active | Active | > 100 µM | 0.32 µM | 0.35 µM | 0.37 µM | 0.09 µM | > 100 µM | > 100 µM | 0.67 µM | 0.48 µM | Drug uptake [32]: Active; Drug uptake [33]: Active; Drug uptake [34]: Active; Drug uptake [35]: ~ 95 nM
4 | CC(=O)Nc1ccc(-c2c3nc(c(-c4ccc[n+](C)c4)c4ccc([nH]4)c(-c4ccc[n+](C)c4)c4nc(c(-c5ccc[n+](C)c5)c5ccc2[nH]5)C=C4)C=C3)cc1.[Cl-].[Cl-].[Cl-] | Active | Active | Active | Active |  |  |  |  | > 100 µM | > 100 µM | > 100 µM | > 100 µM | > 100 µM | > 100 µM | > 100 µM | > 100 µM | > 100 µM | 

Second part, led by results:

Row | Drug uptake [6] | Drug uptake [7] | Drug uptake [11] | Drug uptake [13] | Drug uptake [15] | Drug uptake [17] | Drug uptake [21] | Drug uptake [23] | Compound | IC50 [1] | IC50 [2] | IC50 [3] | IC50 [4] | IC50 [5] | IC50 [8] | IC50 [9] | IC50 [10] | IC50 [12] | other results
5 | Active |  |  | Active | Active | Not_active | Not_active | Active | CCCCCCCCCCCCCC(=O)Nc1ccc(-c2c3nc(c(-c4ccc[n+](C)c4)c4ccc([nH]4)c(-c4ccc[n+](C)c4)c4nc(c(-c5ccc[n+](C)c5)c5ccc2[nH]5)C=C4)C=C3)cc1.[Cl-].[Cl-].[Cl-] | > 100 µM | 0.78 µM | 0.66 µM | 0.31 µM | 0.09 µM | > 100 µM | > 100 µM | 4.6 µM | 1.44 µM | growth at 1 µM [14]: 60%; viability at 1 µM [16]: ~30%; growth at 1 µM [18]: 40%; inhibition at 1 µM [19]: 90%; inhibition at 1 µM [20]: 10%; selectivity ratio [22]: 14.8; selectivity ratio [24]: 3.2; viability at 1 µM [25]: > 80%; inhibition at 1 µM [26]: 50%
6 | Active | Active | Active | Active | Active | Not_active | Not_active | Active | CCCCCCCCCC(=O)Nc1ccc(-c2c3nc(c(-c4ccc[n+](C)c4)c4ccc([nH]4)c(-c4ccc[n+](C)c4)c4nc(c(-c5ccc[n+](C)c5)c5ccc2[nH]5)C=C4)C=C3)cc1.[Cl-].[Cl-].[Cl-] | > 100 µM | 7.09 µM | 7.7 µM | 3.94 µM | 0.91 µM | > 100 µM | > 100 µM | 32.4 µM | 9.77 µM | growth at 1 µM [30]: ~30%; growth at 1 µM [31]: > 80%
7 | Active |  |  | Active |  |  |  |  | CCCCCCCCCCCCCCCC(=O)Nc1ccc(-c2c3nc(c(-c4ccc[n+](C)c4)c4ccc([nH]4)c(-c4ccc[n+](C)c4)c4nc(c(-c5ccc[n+](C)c5)c5ccc2[nH]5)C=C4)C=C3)cc1.[Cl-].[Cl-].[Cl-] | > 100 µM | 0.42 µM | 0.56 µM | 0.38 µM | 0.1 µM | > 100 µM | > 100 µM | 1.48 µM | 0.79 µM | Drug uptake [35]: ~ 26 nM
